Source: patent publication US20120121591A1 (priority 2009, published 2012)

What was measured:
Format in all cases: cell-based
hKv1.3 = hKv1.3 (Homo sapiens, UniProt P22001); test: cell-based; details: Kv1.3 (IWQ) IC50 (nM, Avg)
[1] = system: IL-2 secretion from T cells in human whole blood; details: read-out: WB (IL-2) IC50 (nM, Avg)
[2] = system: IFN-g secretion from T cells in human whole blood; details: read-out: WB (IFNg) IC50 (nM, Avg)

Chain of hKv1.3 (P22001 whole entry): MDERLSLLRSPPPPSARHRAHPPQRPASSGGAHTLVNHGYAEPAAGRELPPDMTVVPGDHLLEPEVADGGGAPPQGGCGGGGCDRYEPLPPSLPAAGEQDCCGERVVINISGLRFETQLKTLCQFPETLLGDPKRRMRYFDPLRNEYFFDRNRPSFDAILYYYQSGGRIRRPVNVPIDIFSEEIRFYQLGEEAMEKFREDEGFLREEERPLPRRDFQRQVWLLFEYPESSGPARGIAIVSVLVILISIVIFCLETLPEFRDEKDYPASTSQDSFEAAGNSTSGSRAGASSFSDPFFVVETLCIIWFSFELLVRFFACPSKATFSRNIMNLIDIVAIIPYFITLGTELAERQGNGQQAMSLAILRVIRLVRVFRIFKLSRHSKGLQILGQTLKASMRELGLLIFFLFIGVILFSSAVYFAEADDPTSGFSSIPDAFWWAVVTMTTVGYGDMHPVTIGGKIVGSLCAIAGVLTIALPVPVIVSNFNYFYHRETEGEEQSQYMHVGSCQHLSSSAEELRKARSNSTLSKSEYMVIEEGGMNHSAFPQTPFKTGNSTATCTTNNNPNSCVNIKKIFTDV

| Structure (SMILES) | IC50 (hKv1.3) [nM] | IC50 [1] [nM] | IC50 [2] [nM] |
| --- | --- | --- | --- |
| CCCC[C@@H]1NC(=O)[C@H](CO)NC(=O)[C@H](Cc2c[nH]cn2)NC(=O)[C@H](CCC(=O)O)NC(=O)[C@@H]2CSSC[C@@H]3NC(=O)[C@H]([C@@H](C)O)NC(=O)[C@H](CCCCN)NC(=O)[C@H](CCCNC(=N)N)NC(=O)[C@H](CSSC[C@H](NC(=O)[C@H](CCCNC(=N)N)NC(=O)[C@H](CO)NC(=O)[C@H](CCCCN)NC(=O)[C@@H]4CCCN4C(=O)[C@H]([C@@H](C)CC)NC(=O)[C@H]([C@@H](C)O)NC(=O)[C@H](CC(=O)O)NC(=O)[C@H](CCC(=O)O)NC(=O)[C@@H](NC(=O)[C@H](CO)NC(=O)[C@@H](N)CCCNC(=N)N)CSSC[C@@H](C(N)=O)NC(=O)[C@H]([C@@H](C)O)NC(=O)CNC3=O)C(=O)N[C@@H]([C@@H](C)O)C(=O)N[C@@H](C)C(=O)N[C@@H](C)C(=O)N[C@@H](CCCCN)C(=O)N2)NC(=O)[C@H](Cc2ccccc2)NC(=O)[C@H](CO)NC(=O)[C@H](CC(C)C)NC(=O)[C@H](CCCNC(=N)N)NC(=O)[C@H](Cc2ccc(O)cc2)NC(=O)[C@H](CCCCN)NC1=O [[Glu4,18,A1a15,Lys16,Nle21]ShK-amide] | 0.346 | 1.22 | 1.6 |
| CCCC[C@@H]1NC(=O)[C@H](CO)NC(=O)[C@H](Cc2c[nH]cn2)NC(=O)[C@H](CCCCN)NC(=O)[C@@H]2CSSC[C@@H]3NC(=O)[C@H]([C@@H](C)O)NC(=O)[C@H](CCCNC(=N)N)NC(=O)[C@H](CCCNC(=N)N)NC(=O)[C@H](CSSC[C@H](NC(=O)[C@H](CCCNC(=N)N)NC(=O)[C@H](CO)NC(=O)[C@H](CCCCN)NC(=O)[C@@H]4CCCN4C(=O)[C@H]([C@@H](C)CC)NC(=O)[C@H]([C@@H](C)O)NC(=O)[C@H](CC(=O)O)NC(=O)[C@H](CCC(=O)O)NC(=O)[C@@H](NC(=O)[C@H](CO)NC(=O)[C@@H](N)CCCNC(=N)N)CSSC[C@@H](C(N)=O)NC(=O)[C@H]([C@@H](C)O)NC(=O)CNC3=O)C(=O)N[C@@H]([C@@H](C)O)C(=O)N[C@@H](C)C(=O)N[C@@H](Cc3ccccc3)C(=O)N[C@@H](CCCCN)C(=O)N2)NC(=O)[C@H](Cc2ccccc2)NC(=O)[C@H](CO)NC(=O)[C@H](CC(C)C)NC(=O)[C@H](CCCNC(=N)N)NC(=O)[C@H](Cc2ccc(O)cc2)NC(=O)[C@H](CCCCN)NC1=O [[Glu4, Lys16, Nle21,Arg30]ShK-amide] | 0.132 | 1.18 | 1.34 |
| CC[C@@H]1NC(=O)[C@H](CO)NC(=O)[C@H](Cc2c[nH]cn2)NC(=O)[C@H](CCCCN)NC(=O)[C@@H]2CSSC[C@@H]3NC(=O)[C@H]([C@@H](C)O)NC(=O)[C@H](CCCCN)NC(=O)[C@H](CCCNC(=N)N)NC(=O)[C@H](CSSC[C@H](NC(=O)[C@H](CCCNC(=N)N)NC(=O)[C@H](CO)NC(=O)[C@H](CCCCN)NC(=O)[C@@H]4CCCN4C(=O)[C@H]([C@@H](C)CC)NC(=O)[C@H]([C@@H](C)O)NC(=O)[C@H](CC(=O)O)NC(=O)[C@H](CCC(=O)O)NC(=O)[C@@H](NC(=O)[C@H](CO)NC(=O)[C@@H](N)CCCNC(=N)N)CSSC[C@@H](C(N)=O)NC(=O)[C@H]([C@@H](C)O)NC(=O)CNC3=O)C(=O)N[C@@H]([C@@H](C)O)C(=O)N[C@@H](C)C(=O)N[C@@H](Cc3ccccc3)C(=O)N[C@@H](CCCCN)C(=O)N2)NC(=O)[C@H](Cc2ccccc2)NC(=O)[C@H](CO)NC(=O)[C@H](CC(C)C)NC(=O)[C@H](CCCNC(=N)N)NC(=O)[C@H](Cc2ccc(O)cc2)NC(=O)[C@H](CCCCN)NC1=O [[Glu4, Lys16,Abu21]ShK-amide] | 0.33 | 1.11 | 1.76 |
| CCCC[C@@H]1NC(=O)[C@H](CO)NC(=O)[C@H](Cc2c[nH]cn2)NC(=O)[C@H](CCCCN)NC(=O)[C@@H]2CSSC[C@@H]3NC(=O)[C@H]([C@@H](C)O)NC(=O)[C@H](CCCCN)NC(=O)[C@H](CCCNC(=N)N)NC(=O)[C@H](CSSC[C@H](NC(=O)[C@H](CCCNC(=N)N)NC(=O)[C@H](CO)NC(=O)[C@H](CCCCN)NC(=O)[C@@H]4CCCN4C(=O)[C@H]([C@@H](C)CC)NC(=O)[C@H]([C@@H](C)O)NC(=O)[C@H](CC(=O)O)NC(=O)[C@H](CCC(=O)O)NC(=O)[C@@H](NC(=O)[C@H](CO)NC(=O)[C@@H](N)CCCNC(=N)N)CSSC[C@@H](C(N)=O)NC(=O)[C@H]([C@@H](C)O)NC(=O)CNC3=O)C(=O)N[C@@H]([C@@H](C)O)C(=O)N[C@@H](C)C(=O)N[C@@H](Cc3ccccc3)C(=O)N[C@@H](CCCCN)C(=O)N2)NC(=O)[C@H](Cc2ccccc2)NC(=O)[C@H](CO)NC(=O)[C@H](CC(C)C)NC(=O)[C@H](CCCNC(=N)N)NC(=O)[C@H](Cc2ccc(O)cc2)NC(=O)[C@H](CCCCN)NC1=O [[Glu4, Lys16,Nle21]ShK-amide] | 0.149 | 0.57 | 0.965 |
| CCC[C@@H]1NC(=O)[C@H](CO)NC(=O)[C@H](Cc2c[nH]cn2)NC(=O)[C@H](CCCCN)NC(=O)[C@@H]2CSSC[C@@H]3NC(=O)[C@H]([C@@H](C)O)NC(=O)[C@H](CCCCN)NC(=O)[C@H](CCCNC(=N)N)NC(=O)[C@H](CSSC[C@H](NC(=O)[C@H](CCCNC(=N)N)NC(=O)[C@H](CO)NC(=O)[C@H](CCCCN)NC(=O)[C@@H]4CCCN4C(=O)[C@H]([C@@H](C)CC)NC(=O)[C@H]([C@@H](C)O)NC(=O)[C@H](CC(=O)O)NC(=O)[C@H](CCC(=O)O)NC(=O)[C@@H](NC(=O)[C@H](CO)NC(=O)[C@@H](N)CCCNC(=N)N)CSSC[C@@H](C(N)=O)NC(=O)[C@H]([C@@H](C)O)NC(=O)CNC3=O)C(=O)N[C@@H]([C@@H](C)O)C(=O)N[C@@H](C)C(=O)N[C@@H](Cc3ccccc3)C(=O)N[C@@H](CCCCN)C(=O)N2)NC(=O)[C@H](Cc2ccccc2)NC(=O)[C@H](CO)NC(=O)[C@H](CC(C)C)NC(=O)[C@H](CCCNC(=N)N)NC(=O)[C@H](Cc2ccc(O)cc2)NC(=O)[C@H](CCCCN)NC1=O [[Glu4, Lys16,Nva21]ShK-amide] | 0.086 | 0.405 | 0.427 |
| CC[C@H](C)[C@@H]1NC(=O)[C@H]([C@@H](C)O)NC(=O)[C@H](CC(=O)O)NC(=O)[C@H](CCC(=O)O)NC(=O)[C@@H](NC(=O)[C@H](CO)NC(=O)[C@@H](N)CCCNC(=N)N)CSSC[C@@H](C(N)=O)NC(=O)[C@H]([C@@H](C)O)NC(=O)CNC(=O)[C@@H]2CSSC[C@@H]3NC(=O)[C@H](CCCCN)NC(=O)[C@H](Cc4ccccc4)NC(=O)[C@H](C)NC(=O)[C@H]([C@@H](C)O)NC(=O)[C@H](CSSC[C@H](NC(=O)[C@H](Cc4ccccc4)NC(=O)[C@H](CO)NC(=O)[C@H](CC(C)C)NC(=O)[C@H](CCCNC(=N)N)NC(=O)[C@H](Cc4ccc(O)cc4)NC(=O)[C@H](CCCCN)NC(=O)[C@H](CO)NC(=O)[C@H](CO)NC(=O)[C@H](Cc4c[nH]cn4)NC(=O)[C@H](CCCCN)NC3=O)C(=O)N[C@@H](CCCNC(=N)N)C(=O)N[C@@H](CCCCN)C(=O)N[C@@H]([C@@H](C)O)C(=O)N2)NC(=O)[C@H](CCCNC(=N)N)NC(=O)[C@H](CO)NC(=O)[C@H](CCCCN)NC(=O)[C@@H]2CCCN2C1=O [[Glu4, Lys16,Ser21]ShK-amide] | 0.098 | 0.86 | 1.99 |
| CC[C@H](C)[C@@H]1NC(=O)[C@H]([C@@H](C)O)NC(=O)[C@H](CC(=O)O)NC(=O)[C@H](CCC(=O)O)NC(=O)[C@@H](NC(=O)[C@H](CO)NC(=O)[C@@H](N)CCCNC(=N)N)CSSC[C@@H](C(N)=O)NC(=O)[C@H]([C@@H](C)O)NC(=O)CNC(=O)[C@@H]2CSSC[C@@H]3NC(=O)[C@H](CCCCN)NC(=O)[C@H](Cc4ccccc4)NC(=O)[C@H](C)NC(=O)[C@H]([C@@H](C)O)NC(=O)[C@H](CSSC[C@H](NC(=O)[C@H](Cc4ccccc4)NC(=O)[C@H](CO)NC(=O)[C@H](CC(C)C)NC(=O)[C@H](CCCNC(=N)N)NC(=O)[C@H](Cc4ccc(O)cc4)NC(=O)[C@H](CCCCN)NC(=O)[C@H]([C@@H](C)O)NC(=O)[C@H](CO)NC(=O)[C@H](Cc4c[nH]cn4)NC(=O)[C@H](CCCCN)NC3=O)C(=O)N[C@@H](CCCNC(=N)N)C(=O)N[C@@H](CCCCN)C(=O)N[C@@H]([C@@H](C)O)C(=O)N2)NC(=O)[C@H](CCCNC(=N)N)NC(=O)[C@H](CO)NC(=O)[C@H](CCCCN)NC(=O)[C@@H]2CCCN2C1=O [[Glu4, Lys16,Thr21]ShK-amide] | 0.085 | 1.38 | 3.94 |
| CCCC[C@@H]1NC(=O)[C@H](CO)NC(=O)[C@H](Cc2c[nH]cn2)NC(=O)[C@H](CCCCN)NC(=O)[C@@H]2CSSC[C@@H]3NC(=O)[C@H]([C@@H](C)O)NC(=O)[C@H](CCCCN)NC(=O)[C@H](CCCNC(=N)N)NC(=O)[C@H](CSSC[C@H](NC(=O)[C@H](CCCNC(=N)N)NC(=O)[C@H](CO)NC(=O)[C@H](CCCCN)NC(=O)[C@@H]4CCCN4C(=O)[C@H]([C@@H](C)CC)NC(=O)[C@H]([C@@H](C)O)NC(=O)[C@H](CC(=O)O)NC(=O)[C@H](CCC(=O)O)NC(=O)[C@@H](NC(=O)[C@H](CO)NC(=O)[C@@H](N)CCCNC(=N)N)CSSC[C@@H](C(N)=O)NC(=O)[C@H]([C@@H](C)O)NC(=O)CNC3=O)C(=O)N[C@@H]([C@@H](C)O)C(=O)N[C@@H](C)C(=O)N[C@@H](C)C(=O)N[C@@H](CCCCN)C(=O)N2)NC(=O)[C@H](Cc2ccccc2)NC(=O)[C@H](CO)NC(=O)[C@H](CC(C)C)NC(=O)[C@H](CCCNC(=N)N)NC(=O)[C@H](Cc2ccc(O)cc2)NC(=O)[C@H](CCCCN)NC1=O [[Glu4,A1a15,Lys16,Nle21]ShK-amide] | 0.168 | 0.856 | 0.901 |
